Measurements reported in patent US7034056B2, “Aryl and biaryl compounds having MCH modulatory activity” (Pharmacopeia Drug Discovery, inc., priority 2001, dated 2006).
pKi: −log10 of the molar value.

What follows are compounds tested against T1, hMCHR (MCH receptor) (Homo sapiens, UniProt Q99705) (assay: MCH Assay PCOP Protocol ([125I]-MCH SPA binding to hMCHR-CHO membranes)). Settings: [125I]-MCH SPA binding, hMCHR-CHO membranes; Ki class ranges; read-out: Activity (range of Ki).
T1 construct: (or internally produced); host or cells: CHO (Chinese hamster ovary) cells, membrane preparation
How it was run: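 SPA binding with 10 μg hMCHR-CHO membranes and WGA-SPA beads in 25 mM HEPES pH 7.4, 10 mM NaCl, 10 mM MgCl2, 5 mM MnCl2, 0.1% BSA.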
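Wherever Activity (Ki range) is given: A 0.4–50 nM B 51–500 nM C 501–2500 nM.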

T1 sequence (Q99705 whole entry): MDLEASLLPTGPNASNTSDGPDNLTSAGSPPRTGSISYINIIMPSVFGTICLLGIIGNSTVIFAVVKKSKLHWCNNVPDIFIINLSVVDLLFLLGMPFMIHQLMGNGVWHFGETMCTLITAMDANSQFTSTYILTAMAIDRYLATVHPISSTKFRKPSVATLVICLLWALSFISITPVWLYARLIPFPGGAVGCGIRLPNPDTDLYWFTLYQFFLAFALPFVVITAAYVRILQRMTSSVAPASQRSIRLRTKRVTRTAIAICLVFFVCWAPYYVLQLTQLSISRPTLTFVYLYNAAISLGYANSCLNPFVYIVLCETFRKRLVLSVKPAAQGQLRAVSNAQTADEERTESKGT

pKi	SMILES
5.60 to 6.30	CC1CCCN(CCC(CNC(=O)c2cc(C(F)(F)F)cc(C(F)(F)F)c2)c2ccc(Cl)c(Cl)c2)C1 (stereo not drawn) [Example 417]
5.60 to 6.30	O=C(NCC(CCN1CCCC1CN1CCCC1)c1ccc(Cl)c(Cl)c1)c1cc(C(F)(F)F)cc(C(F)(F)F)c1 (stereo not drawn) [Example 418]

Same assay, conditions: [125I]-MCH binding to hMCHR-CHO membranes; class symbols for ranges of Ki; read-out: Activity (Ki range)

pKi	SMILES
5.60 to 6.30	COc1ccc(C(CCNCCCN(C)C)CNC(=O)Nc2cc(C(F)(F)F)cc(C(F)(F)F)c2)cc1 (stereo not drawn) [Example 345]
5.60 to 6.30	CN(C)CCCNCCC(CNC(=O)Nc1cc(C(F)(F)F)cc(C(F)(F)F)c1)c1cccc(F)c1 (stereo not drawn) [Example 346]
5.60 to 6.30	Cc1cccc(C(CCNCCCN(C)C)CNC(=O)Nc2cc(C(F)(F)F)cc(C(F)(F)F)c2)c1 (stereo not drawn) [Example 347]
5.60 to 6.30	O=S(=O)(NCC(CCN1CCC(c2ccccc2)CC1)c1ccc(Cl)c(Cl)c1)c1ccc(Cl)c(Cl)c1 (stereo not drawn) [Example 348]
5.60 to 6.30	O=S(=O)(NCC(CCN1CCCC1)c1cccc(Cl)c1)c1ccc(Cl)c(Cl)c1 (stereo not drawn) [Example 349]
6.30 to 7.29	Cc1ccc(C(CCN2CCCCC2)CNC(=O)Nc2cc(Cl)cc(Cl)c2)cc1 (stereo not drawn) [Example 350]
6.30 to 7.29	Cc1ccc(C(CCN2CCC(N3CCCCC3)CC2)CNC(=O)Nc2cc(Cl)cc(Cl)c2)cc1 (stereo not drawn) [Example 351]
6.30 to 7.29	Cc1ccc(C(CCN2CCCCC2)CNC(=O)Nc2ccc(Cl)c(Cl)c2)cc1 (stereo not drawn) [Example 352]
6.30 to 7.29	Cc1ccc(C(CCN2CCCCC2)CNC(=O)Nc2cc(Cl)ccc2Cl)cc1 (stereo not drawn) [Example 353]
5.60 to 6.30	COc1cc(NC(=O)NCC(CCN2CCCCC2)c2ccc(C)cc2)cc(OC)c1 (stereo not drawn) [Example 354]
5.60 to 6.30	Cc1ccc(C(CCN2CCCCC2)CNC(=O)Nc2cc(C)cc(C)c2)cc1 (stereo not drawn) [Example 355]
6.30 to 7.29	O=C(NCC(CCN1CCC(N2CCCCC2)CC1)c1ccc(Cl)c(Cl)c1)Nc1ccc(F)c([N+](=O)[O-])c1 (stereo not drawn) [Example 356]
5.60 to 6.30	O=C(NCC(CCN1CCC(N2CCCCC2)CC1)c1ccc(Cl)c(Cl)c1)Nc1cccc(Cl)c1Cl (stereo not drawn) [Example 358]
5.60 to 6.30	O=C(NCC(CCN1CCC(N2CCCCC2)CC1)c1ccc(Cl)c(Cl)c1)Nc1ccc(Br)cc1Br (stereo not drawn) [Example 359]
5.60 to 6.30	O=C(NCC(CCN1CCC(N2CCCCC2)CC1)c1ccc(Cl)c(Cl)c1)Nc1cc(Cl)ccc1Cl (stereo not drawn) [Example 360]
5.60 to 6.30	Cc1ccc(NC(=O)NCC(CCN2CCC(N3CCCCC3)CC2)c2ccc(Cl)c(Cl)c2)cc1F (stereo not drawn) [Example 361]
5.60 to 6.30	O=C(NCC(CCN1CCC(N2CCCCC2)CC1)c1ccc(Cl)c(Cl)c1)Nc1ccc(OC(F)(F)F)cc1 (stereo not drawn) [Example 362]
5.60 to 6.30	O=C(NCC(CCN1CCC(N2CCCCC2)CC1)c1ccc(Cl)c(Cl)c1)Nc1ccc(F)c(F)c1F (stereo not drawn) [Example 363]
5.60 to 6.30	Cn1cnc(CCNCCC(CNC(=O)Nc2cc(C(F)(F)F)cc(C(F)(F)F)c2)c2ccc(Cl)c(Cl)c2)c1 (stereo not drawn) [Example 367]
5.60 to 6.30	O=C(NCC(CCN1CCC(N2CCCCC2)CC1)c1ccc(F)c(F)c1)Nc1ccc(Cl)c(Cl)c1 (stereo not drawn) [Example 369]
5.60 to 6.30	COc1cc(NC(=O)NCC(CCN2CCC(N3CCCCC3)CC2)c2ccc(Cl)c(Cl)c2)cc(OC)c1 (stereo not drawn) [Example 370]
5.60 to 6.30	O=C(NCC(CCN1CCNCC1)c1ccc(Cl)c(Cl)c1)Nc1cc(C(F)(F)F)cc(C(F)(F)F)c1 (stereo not drawn) [Example 371]

pKi	SMILES
5.60 to 6.30	O=S(=O)(NCC(CCN1CCC(N2CCCCC2)CC1)c1ccc(Cl)c(Cl)c1)c1ccc(Cl)c(Cl)c1 (stereo not drawn) [Example 372]
5.60 to 6.30	O=C(NCC(CCN1CCC(N2CCCCC2)CC1)c1ccc(Cl)c(Cl)c1)Nc1cc(C(F)(F)F)ccc1F (stereo not drawn) [Example 373]
5.60 to 6.30	O=C(NCC(CCN1CCC(N2CCCCC2)CC1)c1ccc(Cl)c(Cl)c1)Nc1ccc(F)cc1 (stereo not drawn) [Example 374]
5.60 to 6.30	N#Cc1cccc(NC(=O)NCC(CCN2CCC(N3CCCCC3)CC2)c2ccc(Cl)c(Cl)c2)c1 (stereo not drawn) [Example 375]
5.60 to 6.30	O=S(=O)(NCC(CCN1CCC(N2CCCCC2)CC1)c1ccc(Cl)c(Cl)c1)c1cccc(C(F)(F)F)c1 (stereo not drawn) [Example 376]
5.60 to 6.30	Cc1cc(C)cc(NC(=O)NCC(CCN2CCC(N3CCCCC3)CC2)c2ccc(Cl)c(Cl)c2)c1 (stereo not drawn) [Example 377]
5.60 to 6.30	O=C(NCC(CCN1CCC(N2CCCCC2)CC1)c1ccc(F)c(F)c1)Nc1ccc(F)c(Cl)c1 (stereo not drawn) [Example 378]
5.60 to 6.30	O=C(NCc1cc(C(F)(F)F)cc(C(F)(F)F)c1)C(CCNC1CCC1)c1ccc(Cl)c(Cl)c1 (stereo not drawn) [Example 379]
5.60 to 6.30	O=C(NCc1cc(C(F)(F)F)cc(C(F)(F)F)c1)C(CCNCCN1CCCC1)c1ccc(Cl)c(Cl)c1 (stereo not drawn) [Example 380]
5.60 to 6.30	O=C(NCc1cc(C(F)(F)F)cc(C(F)(F)F)c1)C(CCNCCc1c[nH]c2cc(F)ccc12)c1ccc(Cl)c(Cl)c1 (stereo not drawn) [Example 381]
5.60 to 6.30	CC1CCN(CCC(C(=O)NCc2cc(C(F)(F)F)cc(C(F)(F)F)c2)c2ccc(Cl)c(Cl)c2)CC1 (stereo not drawn) [Example 382]
5.60 to 6.30	O=C(NCc1cc(C(F)(F)F)cc(C(F)(F)F)c1)C(CCN1CCCCC1CO)c1ccc(Cl)c(Cl)c1 (stereo not drawn) [Example 383]
5.60 to 6.30	CC(C)OCCCNCCC(C(=O)NCc1cc(C(F)(F)F)cc(C(F)(F)F)c1)c1ccc(Cl)c(Cl)c1 (stereo not drawn) [Example 384]
5.60 to 6.30	O=C(NCc1cc(C(F)(F)F)cc(C(F)(F)F)c1)C(CCNCCc1c[nH]c2ccccc12)c1ccc(Cl)c(Cl)c1 (stereo not drawn) [Example 385]
5.60 to 6.30	O=C(NCc1cc(C(F)(F)F)cc(C(F)(F)F)c1)C(CCNCCc1c[nH]c2ccc(F)cc12)c1ccc(Cl)c(Cl)c1 (stereo not drawn) [Example 386]
5.60 to 6.30	O=C(NCc1cc(C(F)(F)F)cc(C(F)(F)F)c1)C(CCN1CCCC(CO)C1)c1ccc(Cl)c(Cl)c1 (stereo not drawn) [Example 387]
5.60 to 6.30	O=C(NCc1cc(C(F)(F)F)cc(C(F)(F)F)c1)C(CCNCCCn1ccnc1)c1ccc(Cl)c(Cl)c1 (stereo not drawn) [Example 388]
5.60 to 6.30	O=C(NCc1cc(C(F)(F)F)cc(C(F)(F)F)c1)C(CCN1CCC(O)CC1)c1ccc(Cl)c(Cl)c1 (stereo not drawn) [Example 389]
5.60 to 6.30	Cc1cc(CNC(=O)C(CCN2CCCC(C)C2)c2ccc(Cl)c(Cl)c2)cc(C(F)(F)F)c1 (stereo not drawn) [Example 391]
6.30 to 7.29	O=C(NCC(CCNCCc1ccc(O)cc1)c1ccc(Cl)c(Cl)c1)c1cc(C(F)(F)F)cc(C(F)(F)F)c1 (stereo not drawn) [Example 392]
5.60 to 6.30	CN(CCC(CNC(=O)c1cc(C(F)(F)F)cc(C(F)(F)F)c1)c1ccc(Cl)c(Cl)c1)CC(=O)O (stereo not drawn) [Example 393]
5.60 to 6.30	COc1ccc2c(CCNCCC(CNC(=O)c3cc(C(F)(F)F)cc(C(F)(F)F)c3)c3ccc(Cl)c(Cl)c3)c[nH]c2c1 (stereo not drawn) [Example 394]

pKi	SMILES
5.60 to 6.30	CCCN(CC)CCC(CNC(=O)c1cc(C(F)(F)F)cc(C(F)(F)F)c1)c1ccc(Cl)c(Cl)c1 (stereo not drawn) [Example 395]
5.60 to 6.30	COc1ccc2[nH]cc(CCNCCC(CNC(=O)c3cc(C(F)(F)F)cc(C(F)(F)F)c3)c3ccc(Cl)c(Cl)c3)c2c1 (stereo not drawn) [Example 396]
5.60 to 6.30	O=C(NCC(CCN1CCc2c([nH]c3ccccc23)C1)c1ccc(Cl)c(Cl)c1)c1cc(C(F)(F)F)cc(C(F)(F)F)c1 (stereo not drawn) [Example 397]
5.60 to 6.30	O=C(NCC(CCNC1CCC1)c1ccc(Cl)c(Cl)c1)c1cc(C(F)(F)F)cc(C(F)(F)F)c1 (stereo not drawn) [Example 398]
5.60 to 6.30	O=C(NCC(CCNCCc1c[nH]c2ccccc12)c1ccc(Cl)c(Cl)c1)c1cc(C(F)(F)F)cc(C(F)(F)F)c1 (stereo not drawn) [Example 400]
5.60 to 6.30	CCCCN(CCC(CNC(=O)c1cc(C(F)(F)F)cc(C(F)(F)F)c1)c1ccc(Cl)c(Cl)c1)C1CC1 (stereo not drawn) [Example 401]
5.60 to 6.30	O=C(NCC(CCN1CCN(c2ccc(O)cc2)CC1)c1ccc(Cl)c(Cl)c1)c1cc(C(F)(F)F)cc(C(F)(F)F)c1 (stereo not drawn) [Example 402]
5.60 to 6.30	O=C(NCC(CCN1CCCCC1)c1ccc(Cl)c(Cl)c1)c1cc(C(F)(F)F)cc(C(F)(F)F)c1 (stereo not drawn) [Example 403]
5.60 to 6.30	O=C(NCC(CCNCC1CCCO1)c1ccc(Cl)c(Cl)c1)c1cc(C(F)(F)F)cc(C(F)(F)F)c1 (stereo not drawn) [Example 404]
5.60 to 6.30	CC1CCN(CCC(CNC(=O)c2cc(C(F)(F)F)cc(C(F)(F)F)c2)c2ccc(Cl)c(Cl)c2)CC1 (stereo not drawn) [Example 405]
5.60 to 6.30	O=C(NCC(CCN1CCCC1)c1ccc(Cl)c(Cl)c1)c1cc(C(F)(F)F)cc(C(F)(F)F)c1 (stereo not drawn) [Example 406]
5.60 to 6.30	CCN1CCCC1CNCCC(CNC(=O)c1cc(C(F)(F)F)cc(C(F)(F)F)c1)c1ccc(Cl)c(Cl)c1 (stereo not drawn) [Example 407]
5.60 to 6.30	CN(CCC(CNC(=O)c1cc(C(F)(F)F)cc(C(F)(F)F)c1)c1ccc(Cl)c(Cl)c1)C1CCCCC1 (stereo not drawn) [Example 408]
5.60 to 6.30	CC(C)OCCCNCCC(CNC(=O)c1cc(C(F)(F)F)cc(C(F)(F)F)c1)c1ccc(Cl)c(Cl)c1 (stereo not drawn) [Example 409]
5.60 to 6.30	Cc1ccc2[nH]cc(CCNCCC(CNC(=O)c3cc(C(F)(F)F)cc(C(F)(F)F)c3)c3ccc(Cl)c(Cl)c3)c2c1 (stereo not drawn) [Example 410]
5.60 to 6.30	O=C(NCC(CCNCCN1CCCC1)c1ccc(Cl)c(Cl)c1)c1cc(C(F)(F)F)cc(C(F)(F)F)c1 (stereo not drawn) [Example 411]
5.60 to 6.30	CCN(CC)CCC(CNC(=O)c1cc(C(F)(F)F)cc(C(F)(F)F)c1)c1ccc(Cl)c(Cl)c1 (stereo not drawn) [Example 412]
5.60 to 6.30	CN1CCCC1CCNCCC(CNC(=O)c1cc(C(F)(F)F)cc(C(F)(F)F)c1)c1ccc(Cl)c(Cl)c1 (stereo not drawn) [Example 413]
5.60 to 6.30	O=C(NCC(CCNCCCn1ccnc1)c1ccc(Cl)c(Cl)c1)c1cc(C(F)(F)F)cc(C(F)(F)F)c1 (stereo not drawn) [Example 414]
5.60 to 6.30	O=C(NCC(CCNCCc1c[nH]c2cc(F)ccc12)c1ccc(Cl)c(Cl)c1)c1cc(C(F)(F)F)cc(C(F)(F)F)c1 (stereo not drawn) [Example 415]
5.60 to 6.30	O=C(NCC(CCN1CCC(CNC2(CO)CCCC2)CC1)c1ccc(Cl)c(Cl)c1)c1cc(C(F)(F)F)cc(C(F)(F)F)c1 (stereo not drawn) [Example 416]

SMILES	pKi
O=C(NCc1cc(C(F)(F)F)cc(C(F)(F)F)c1)C(CCN1CCC(O)(c2ccc(Cl)cc2)CC1)c1ccc(Cl)c(Cl)c1 (stereo not drawn) [Example 390]	5.60 to 6.30
CC(Cc1c[nH]c2ccc(F)cc12)NCCC(CNC(=O)c1cc(C(F)(F)F)cc(C(F)(F)F)c1)c1ccc(Cl)c(Cl)c1 (stereo not drawn) [Example 399]	5.60 to 6.30
